Experiments:
Format in all cases: in vivo
[1] = tested on: rice cv. Cheniere; assay: Emergence of seed-treated rice seeded onto soil previously treated with herbicide; conditions: no seed treatment (Control), untreated 90
Source text: Seed was sieved with a screen of mesh size appropriate to remove broken seeds and small trash. Cracked or otherwise damaged seeds were removed. The seed was well mixed, and 50 g samples were weighed into small plastic trays. […] A fungicide (Maxim XL; Syngenta Agricultural Products, Greensboro, N.C.), a polymeric binder (CF-Clear; Becker-Underwood, Ames, Iowa), and a colorant (Color Coat Red; Becker-Underwood, Ames, Iowa) were also included in the slurry at label rates. A small aliquot of this slurry was applied to the seed using the Hege 11 coater (Wintersteiger, Salt Lake City, Utah) with a six-inch bowl at a slurry rate of 30 ounces per 100 lbs of seed. The slurry was deposited drop-wise on the spinning disk atomizer using a syringe.
Rice cv. […] It was then seeded onto soil which was previously sprayed with the pendimethalin herbicide Prowl H2O® (BASF Agricultural Products, Research Triangle Park, N.C.).
After seed treatment, rice was seeded into soil previously treated with the dithiopyr herbicide Dimension®.
Rice seed treated with PESA was tested for its ability to protect rice from the herbicide Roundup WeatherMax® (glyphosate). After seed treatment, rice was seeded into soil previously treated with the Roundup WeatherMax®.

[2] = tested on: rice cv. Cheniere; assay: Pouch assay, PESA salt and herbicide added to the pouch solution; root and shoot length
Protocol: Alternatively, PESA salt and herbicides may be added separately to the sterile water in the growth pouch.
(§1) Seeds were placed in germination pouches consisting of germination paper hydrated with sterile water that was an insert in a gas-permeable 16×14 cm plastic pouch (CYG Pouch; Mega International, St. Paul, Minn.). In these examples, in pouch solution evaluation, PESA sodium salt or other active ingredients were added to the sterile water in the pouch. The pouches were arranged in a completely randomized block design in growth racks and placed in 19-liter polycarbonate food storage containers (Rubbermaid Commercial Products, Winchester, Va.). The sealed containers were held in an upright growth cabinet maintained at 25 C with a 12 hour light: 12 hour dark photoperiod. After 6 days, the containers were removed from the growth cabinet, and the lengths of the roots and shoot were measured.

[3] = tested on: rice cv. Nipponbare; assay: Hydroponic assay; total root length and shoot length; conditions: for Shoot Length / Total Root Length: 0 ppm PESA salt
Protocol: Where hydroponically-grown rice was used in studies, the seeds were pre-incubated in water at 30 C for 2 days to stimulate germination. Three seeds were placed on a float and cultivated hydroponically in a test tube (25 mm×200 mm), which contained 50 ml of Kimura B nutrient solution at ⅛th strength supplemented with herbicides and PESA sodium salt. The exposure of the roots to the light was prevented by wrapping the tubes with aluminum foil. The rice seedlings were incubated in a growth cabinet at 25 C under continuous light for 14 days, and the total root length and shoot length were measured. Total root length (cm) was the root length/plant determined following scanning with WinRhizo software (Regent Instruments INC, Toronto, Canada).

[4] = tested on: cotton; assay: Pouch assay; root and shoot length of cotton; conditions: 0 ppm PESA salt; for Shoot Length: untreated 4.7; for Root Length: untreated 7.7
Protocol: as §1

[5] = 10 ppm dithiopyr, treatment none (Control), 30 ppm PESA salt, 10 ppm GA3 or both, untreated 3.9
[6] = 10 ppm dithiopyr, treatment none (Control), 30 ppm PESA salt, 10 ppm GA3 or both, untreated 9.5
[7] = 50 ppm pendimethalin, treatment none (Control), 30 ppm PESA salt, 10 ppm GA3 or both, untreated 3.9
[8] = 50 ppm pendimethalin, treatment none (Control), 30 ppm PESA salt, 10 ppm GA3 or both, untreated 9.7
[9] = pendimethalin (Table 4, 50 ppm)

O=C(O)CNCP(=O)(O)O [Glyphosate, glyphosate, reference compound]
Percent Emergence at 9 days after planting ([1]; glyphosate 23 μg/cm2 (Roundup)): 72% | Percent Emergence at 9 days after planting ([1]; glyphosate 90 μg/cm2 (Roundup)): 12%

C=C1C[C@]23C[C@@]1(O)CC[C@H]2[C@@]12C=C[C@H](O)[C@@](C)(C(=O)O1)[C@H]2[C@@H]3C(=O)O [GA3, gibberellic acid, reference compound]
Shoot Length ([2]; 0 ppm pendimethalin, treatment 30 ppm PESA salt, 10 ppm GA3 or both, untreated 3.9): 7.7 cm | Root Length ([2]; 0 ppm pendimethalin, treatment 30 ppm PESA salt, 10 ppm GA3 or both, untreated 9.7): 10.8 cm | Shoot Length [2, 5]: 5.6 cm | Root Length [2, 6]: 4.7 cm | Shoot Length [2, 7]: 1.5 cm | Root Length [2, 8]: 2.7 cm | protection of roots and shoots from pendimethalin ([2]; in the growth medium with pendimethalin (Table 4)): only marginally effective at protecting the roots and shoots from pendimethalin | Shoot Length ([2]; no dithiopyr (Control), treatment 30 ppm PESA salt, 10 ppm GA3 or both, untreated 3.9): 7.0 cm | Root Length ([2]; no dithiopyr (Control), treatment 30 ppm PESA salt, 10 ppm GA3 or both, untreated 9.5): 10.7 cm

C#CCOC(=O)[C@@H](C)Oc1ccc(Oc2ncc(Cl)cc2F)cc1 [Clodinafop-propargyl, clodinafop-propargyl, reference compound]
Shoot Length ([3]; 0.3 ppm clodinafop-propargyl, untreated 10.6): 10.2 cm | Total Root Length ([3]; 0.3 ppm clodinafop-propargyl, untreated 52.1): 45.3 cm | Shoot Length ([3]; 1 ppm clodinafop-propargyl, untreated 10.6): 10.9 cm | Total Root Length ([3]; 1 ppm clodinafop-propargyl, untreated 52.1): 11.5 cm | root length reduced by ([3]; 3 ppm clodinafop-propargyl): 91% | Shoot Length ([3]; 3 ppm clodinafop-propargyl, untreated 10.6): 7.5 cm | Total Root Length ([3]; 3 ppm clodinafop-propargyl, untreated 52.1): 4.7 cm

COc1c(Cl)ccc(Cl)c1C(=O)O [Dicamba, dicamba, reference compound]
Shoot Length ([3]; 0.01 ppm dicamba, untreated 11.4): 10.6 cm | Total Root Length ([3]; 0.01 ppm dicamba, untreated 44.9): 21.3 cm | root length reduced by ([3]; 0.1 ppm dicamba): 87% | shoot length reduced by ([3]; 0.1 ppm dicamba): 61% | Shoot Length ([3]; 0.1 ppm dicamba, untreated 11.4): 4.5 cm | Total Root Length ([3]; 0.1 ppm dicamba, untreated 44.9): 6.0 cm | Shoot Length ([3]; 1 ppm dicamba, untreated 11.4): 3.8 cm | Total Root Length ([3]; 1 ppm dicamba, untreated 44.9): 0.0 cm

CCc1cccc(C)c1N(C(=O)CCl)C(C)COC (stereo not drawn) [Metolachlor, metolachlor, reference compound]
Shoot Length ([2]; 1 ppm metolachlor, 0 ppm PESA salt, untreated 3.7): 3.6 cm | Root Length ([2]; 1 ppm metolachlor, 0 ppm PESA salt, untreated 9.3): 8.2 cm | decrease in root length ([2]; 10 ppm metolachlor): 60% | Shoot Length ([2]; 10 ppm metolachlor, 0 ppm PESA salt, untreated 3.7): 0.9 cm | Root Length ([2]; 10 ppm metolachlor, 0 ppm PESA salt, untreated 9.3): 3.7 cm | Shoot Length ([2]; 100 ppm metolachlor, 0 ppm PESA salt, untreated 3.7): 0.6 cm | Root Length ([2]; 100 ppm metolachlor, 0 ppm PESA salt, untreated 9.3): 1.6 cm

C#CCN1C(=O)COc2cc(F)c(N3C(=O)C4=C(CCCC4)C3=O)cc21 [Flumioxazin, flumioxazin, reference compound]
Shoot Length ([3]; 0.1 ppm flumioxazin, untreated 10.6): 10.7 cm | Total Root Length ([3]; 0.1 ppm flumioxazin, untreated 52.1): 41.5 cm | Shoot Length ([3]; 0.3 ppm flumioxazin, untreated 10.6): 11.0 cm | Total Root Length ([3]; 0.3 ppm flumioxazin, untreated 52.1): 64.1 cm | root length reduced by ([3]; 1 ppm flumioxazin): 28% | shoot length reduced by ([3]; 1 ppm flumioxazin): 64% | Shoot Length ([3]; 1 ppm flumioxazin, untreated 10.6): 3.8 cm | Total Root Length ([3]; 1 ppm flumioxazin, untreated 52.1): 14.5 cm | Shoot Length ([3]; 3 ppm flumioxazin, untreated 10.6): 5.9 cm | Total Root Length ([3]; 3 ppm flumioxazin, untreated 52.1): 15.7 cm

CSC(=O)c1c(C(F)F)nc(C(F)(F)F)c(C(=O)SC)c1CC(C)C [Dithiopyr, dithiopyr, reference compound]
Shoot Length ([2]; 1 ppm dithiopyr, 0 ppm PESA salt, untreated 4.0): 4.3 cm | Root Length ([2]; 1 ppm dithiopyr, 0 ppm PESA salt, untreated 9.5): 10.0 cm | root length reduced by ([2]; 10 ppm dithiopyr): 30% | Shoot Length ([2]; 10 ppm dithiopyr, 0 ppm PESA salt, untreated 4.0): 3.5 cm | Root Length ([2]; 10 ppm dithiopyr, 0 ppm PESA salt, untreated 9.5): 6.7 cm | Shoot Length [2, 5]: 3.0 cm | Root Length [2, 6]: 4.1 cm | Shoot Length ([2]; 100 ppm dithiopyr, 0 ppm PESA salt, untreated 4.0): 1.2 cm | Root Length ([2]; 100 ppm dithiopyr, 0 ppm PESA salt, untreated 9.5): 0.4 cm

COc1nc(C)nc(NC(=O)NS(=O)(=O)c2ccccc2Cl)n1 [Chlorsulfuron, chlorsulfuron, reference compound]
Shoot Length ([2]; 10 ppm chlorsulfuron, 0 ppm PESA salt, untreated 4.8): 0.9 cm | Root Length ([2]; 10 ppm chlorsulfuron, 0 ppm PESA salt, untreated 11.6): 0.6 cm | Shoot Length ([2]; 100 ppm chlorsulfuron, 0 ppm PESA salt, untreated 4.8): 0.7 cm | Root Length ([2]; 100 ppm chlorsulfuron, 0 ppm PESA salt, untreated 11.6): 0.3 cm | Shoot Length ([4]; 1 ppm chlorsulfuron): 2.3 cm | Root Length ([4]; 1 ppm chlorsulfuron): 2.1 cm | Shoot Length ([4]; 10 ppm chlorsulfuron): 1.5 cm | Root Length ([4]; 10 ppm chlorsulfuron): 1.8 cm | Shoot Length ([4]; 100 ppm chlorsulfuron): 1.7 cm | Root Length ([4]; 100 ppm chlorsulfuron): 1.9 cm

CCC(CC)Nc1c([N+](=O)[O-])cc(C)c(C)c1[N+](=O)[O-] [Pendimethalin, pendimethalin, reference compound]
Shoot Length ([2]; 10 ppm pendimethalin, 0 ppm PESA salt, untreated 3.4): 3.4 cm | Root Length ([2]; 10 ppm pendimethalin, 0 ppm PESA salt, untreated 8.5): 8.3 cm | Shoot Length [2, 7]: 1.3 cm | Root Length [2, 8]: 2.9 cm | root length reduced by ([2]; 100 ppm pendimethalin): 70% | Shoot Length ([2]; 100 ppm pendimethalin, 0 ppm PESA salt, untreated 3.4): 1.0 cm | Root Length ([2]; 100 ppm pendimethalin, 0 ppm PESA salt, untreated 8.5): 2.5 cm | Shoot Length ([2]; 500 ppm pendimethalin, 0 ppm PESA salt, untreated 3.4): 0.5 cm | Root Length ([2]; 500 ppm pendimethalin, 0 ppm PESA salt, untreated 8.5): 0.5 cm | root length decreased by [2, 9]: 75% | shoot length decreased by [2, 9]: 67%

COc1cc(OC)nc(NC(=O)NS(=O)(=O)c2c(Cl)nc3ccccn23)n1 [Imazosulfuron, imazosulfuron, reference compound]
Shoot Length ([3]; 0.01 ppm imazosulfuron, untreated 11.4): 12.6 cm | Total Root Length ([3]; 0.01 ppm imazosulfuron, untreated 44.9): 41.4 cm | root length reduced by ([3]; 0.1 ppm imazosulfuron): 49% | Shoot Length ([3]; 0.1 ppm imazosulfuron, untreated 11.4): 8.6 cm | Total Root Length ([3]; 0.1 ppm imazosulfuron, untreated 44.9): 23.1 cm | shoot length reduced by ([3]; 1 ppm imazosulfuron): 86% | Shoot Length ([3]; 1 ppm imazosulfuron, untreated 11.4): 1.6 cm | Total Root Length ([3]; 1 ppm imazosulfuron, untreated 44.9): 4.9 cm
